activation, EC50 and Emax data for 21 molecules are collected here from patent publication US8119624B2, “Fused phenyl amido heterocyclic compounds” (Pfizer Inc., priority 2006, dated 2012).

The target in this assay is T1, Full-length glucokinase (beta cell isoform) (Homo sapiens, UniProt P35557).
T1 construct: Full-length glucokinase (beta cell isoform) was His-tagged at N-terminus; His tag (N); made in house
T1 sequence (P35557 1-465): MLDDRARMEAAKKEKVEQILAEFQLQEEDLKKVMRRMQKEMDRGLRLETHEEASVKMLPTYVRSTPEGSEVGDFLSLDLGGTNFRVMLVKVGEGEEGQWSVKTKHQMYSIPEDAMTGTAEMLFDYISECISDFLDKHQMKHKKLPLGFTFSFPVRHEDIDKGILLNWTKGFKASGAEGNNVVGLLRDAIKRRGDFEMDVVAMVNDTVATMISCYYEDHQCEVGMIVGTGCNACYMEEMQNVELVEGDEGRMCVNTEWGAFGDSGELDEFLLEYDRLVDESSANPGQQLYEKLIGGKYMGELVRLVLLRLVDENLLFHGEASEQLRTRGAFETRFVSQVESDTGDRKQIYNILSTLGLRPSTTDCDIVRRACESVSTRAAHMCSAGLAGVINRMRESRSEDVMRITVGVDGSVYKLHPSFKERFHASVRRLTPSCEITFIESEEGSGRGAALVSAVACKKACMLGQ
In words: Glucokinase biochemical assay (PK/LDH-coupled, NADH depletion at 340 nm): % activation, EC50, % max activation. To be noted: 5 mM glucose; for activation at 10 µM: 10 uM compound, % Activation=(Va/Vo−1)×100, read-out: % Activation at 10 uM; for EC50: GK activation, read-out: EC50; for Emax: fitted maximum activation, read-out: % Max Activation. In short, it runs like this: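 N-terminally His-tagged full-length human beta-cell glucokinase, room temperature, 5 mM glucose, 1 mM ATP, PK/LDH-coupled with 0.7 mM NADH, 1% DMSO final. Initial velocity from the 200–900 s slope of A340 decline. % activation = (Va/Vo−1)×100, measured across compound concentrations.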

In general, EC50 refers to the concentration giving half of the maximal effect. Take `Cc1ccc(NC(=O)c2cc(Oc3ccc(S(=O)(=O)N(C)C)cc3)c3c(c2)OC(C)(C)C3)nc1` [Example 128, 4-(4-Dimethylsulfamoyl-phenoxy)-2,2-dimethyl-2,3-dihydro-benzofuran-6-carboxylic acid (5-methyl-pyridin-2-yl)-amide]: the activation at 10 µM was found to be 135%, the EC50 amounted to 0.038 µM and the Emax is 112%.
The like results for `Cn1ccc(NC(=O)c2cc(Oc3ccc(S(=O)(=O)C4CC4)cc3)c3c(c2)OC(C)(C)C3)n1` [Example 129, 4-(4-Cyclopropanesulfonyl-phenoxy)-2,2-dimethyl-2,3-dihydro-benzofuran-6-carboxylic acid (1-methyl-1H-pyrazol-3-yl)-amide] were, in that order, 185%, 0.089 µM and 160%.
The like results for `CN(C)S(=O)(=O)c1ccc(Oc2cc(C(=O)Nc3ccn(C)n3)cc3c2CC(C)(C)O3)cc1F` [Example 130, 4-(4-Dimethylsulfamoyl-3-fluoro-phenoxy)-2,2-dimethyl-2,3-dihydro-benzofuran-6-carboxylic acid (1-methyl-1H-pyrazol-3-yl)-amide] were, in that order, 211%, 0.14 µM and 236%.
Turning to `Cn1ncc(NC(=O)c2cc(Oc3ccc(S(=O)(=O)C4CC4)cc3)c3c(c2)OC(C)(C)C3)n1` [Example 131, 4-(4-Cyclopropanesulfonyl-phenoxy)-2,2-dimethyl-2,3-dihydro-benzofuran-6-carboxylic acid (2-methyl-2H-[1,2,3]triazol-4-yl)-amide], the activation at 10 µM is 292%, the EC50 came to 0.21 µM and the Emax was found to be 272%.
Take `CN(C)S(=O)(=O)c1ccc(Oc2cc(C(=O)Nc3cnn(C)n3)cc3c2CC(C)(C)O3)cc1F` [Example 132, 4-(4-Dimethylsulfamoyl-3-fluoro-phenoxy)-2,2-dimethyl-2,3-dihydro-benzofuran-6-carboxylic acid (2-methyl-2H-[1,2,3]triazol-4-yl)-amide]: the activation at 10 µM was determined as 288%, the EC50 stood at 0.17 µM and the Emax was 280%.
In the case of `CCS(=O)(=O)c1ccc(Oc2cc(C(=O)Nc3cnn(C)n3)cc3c2CC(C)(C)O3)cc1` [Example 133, 4-(4-Ethanesulfonyl-phenoxy)-2,2-dimethyl-2,3-dihydro-benzofuran-6-carboxylic acid (2-methyl-2H-[1,2,3]triazol-4-yl)-amide], the activation at 10 µM was 308%, the EC50 came out at 0.12 µM and the Emax turned out to be 293%.
As for `CN(C)S(=O)(=O)c1ccc(Oc2cc(C(=O)Nc3cnn(C)n3)cc3c2CC(C)(C)O3)cc1` [Example 134, 4-(4-Dimethylsulfamoyl-phenoxy)-2,2-dimethyl-2,3-dihydro-benzofuran-6-carboxylic acid (2-methyl-2H-[1,2,3]triazol-4-yl)-amide], the activation at 10 µM turned out to be 300%, the EC50 was 0.19 µM and the Emax is 271%.
`CCS(=O)(=O)c1ccc(Oc2cc(C(=O)Nc3cnn(C)n3)cc3c2CC(C)(C)O3)cc1F` [Example 135, 4-(4-Ethanesulfonyl-3-fluoro-phenoxy)-2,2-dimethyl-2,3-dihydro-benzofuran-6-carboxylic acid (2-methyl-2H-[1,2,3]triazol-4-yl)-amide]: the activation at 10 µM turned out to be 239%, the EC50 came to 0.097 µM and the Emax was 257%.
Consider `CCS(=O)(=O)c1ccc(Oc2cc(C(=O)Nc3ccn(C)n3)cc3c2CC(C)(C)O3)cc1F` [Example 136, 4-(4-Ethanesulfonyl-3-fluoro-phenoxy)-2,2-dimethyl-2,3-dihydro-benzofuran-6-carboxylic acid (1-methyl-1H-pyrazol-3-yl)-amide], for which the activation at 10 µM was determined as 237%, the EC50 was 0.12 µM and the Emax was found to be 236%.
With `Cn1ccc(NC(=O)c2cc(Oc3ccc(S(C)(=O)=O)cc3Cl)c3c(c2)OC(C)(C)C3)n1` [Example 137, 4-(2-Chloro-4-methanesulfonyl-phenoxy)-2,2-dimethyl-2,3-dihydro-benzofuran-6-carboxylic acid (1-methyl-1H-pyrazol-3-yl)-amide], the activation at 10 µM was determined as 212%, the EC50 turned out to be 0.27 µM and the Emax came to 218%.
The like results for `CN(C)S(=O)(=O)c1cc(F)c(Oc2cc(C(=O)Nc3cnn(C)n3)cc3c2CC(C)(C)O3)cc1F` [Example 138, 4-(4-Dimethylsulfamoyl-2,5-difluoro-phenoxy)-2,2-dimethyl-2,3-dihydro-benzofuran-6-carboxylic acid (2-methyl-2H-[1,2,3]triazol-4-yl)-amide] were, in that order, 218%, 0.34 µM and 224%.
Consider `Cn1ccc(NC(=O)c2cc(Oc3ccc(S(C)(=O)=O)c(Cl)c3)c3c(c2)OC(C)(C)C3)n1` [Example 139, 4-(3-Chloro-4-methanesulfonyl-phenoxy)-2,2-dimethyl-2,3-dihydro-benzofuran-6-carboxylic acid (1-methyl-1H-pyrazol-3-yl)-amide], for which the activation at 10 µM is 242%, the EC50 was determined as 0.55 µM and the Emax stood at 254%.
For the molecule `Cn1ncc(NC(=O)c2cc(Oc3ccc(S(=O)(=O)C4CC4)c(F)c3)c3c(c2)OC(C)(C)C3)n1` [Example 140, 4-(4-Cyclopropanesulfonyl-3-fluoro-phenoxy)-2,2-dimethyl-2,3-dihydro-benzofuran-6-carboxylic acid (2-methyl-2H-[1,2,3]triazol-4-yl)-amide], the activation at 10 µM is 196%, the EC50 was 0.17 µM and the Emax turned out to be 236%.
For `Cn1ccc(NC(=O)c2cc(Oc3ccc(S(=O)(=O)C4CC4)c(F)c3)c3c(c2)OC(C)(C)C3)n1` [Example 141, 4-(4-Cyclopropanesulfonyl-3-fluoro-phenoxy)-2,2-dimethyl-2,3-dihydro-benzofuran-6-carboxylic acid (1-methyl-1H-pyrazol-3-yl)-amide], the activation at 10 µM is 173%, the EC50 stood at 0.11 µM and the Emax amounted to 216%.
In the case of `CN(C)C(=O)c1ccc(Oc2cc(C(=O)Nc3cnn(C)n3)cc3c2CC(C)(C)O3)cc1F` [Example 142, 4-(4-Dimethylcarbamoyl-3-fluoro-phenoxy)-2,2-dimethyl-2,3-dihydro-benzofuran-6-carboxylic acid (2-methyl-2H-[1,2,3]triazol-4-yl)-amide], the activation at 10 µM came out at 145%, the EC50 stood at 0.0528 µM and the Emax stood at 130%.
Take `Cc1cc(NC(=O)c2cc(Oc3ccc(C(=O)N(C)C)c(F)c3)c3c(c2)OC(C)(C)C3)no1` [Example 143, 4-(4-Dimethylcarbamoyl-3-fluoro-phenoxy)-2,2-dimethyl-2,3-dihydro-benzofuran-6-carboxylic acid (5-methyl-isoxazol-3-yl)-amide]: the activation at 10 µM turned out to be 47.8%, the concentration for a half-maximal effect (EC50) is 0.179 µM and the Emax was found to be 50%.
For the molecule `CN(C)C(=O)c1ccc(Oc2cc(C(=O)Nc3ccon3)cc3c2CC(C)(C)O3)cc1F` [Example 144, 4-(4-Dimethylcarbamoyl-3-fluoro-phenoxy)-2,2-dimethyl-2,3-dihydro-benzofuran-6-carboxylic acid isoxazol-3-ylamide], the activation at 10 µM amounted to 103%, the half-maximal effective concentration (EC50) was determined as 0.269 µM and the Emax was found to be 100%.
Turning to `CN(C)C(=O)c1ccc(Oc2cc(C(=O)Nc3ccc(CO)cn3)cc3c2CC(C)(C)O3)cc1F` [Example 145, 4-(4-Dimethylcarbamoyl-3-fluoro-phenoxy)-2,2-dimethyl-2,3-dihydro-benzofuran-6-carboxylic acid (5-hydroxymethyl-pyridin-2-yl)-amide], the activation at 10 µM was 47.2%, the 50% effective concentration (EC50) was found to be 0.0727 µM and the Emax is 46.5%.
With `CN(C)C(=O)c1ccc(Oc2cc(C(=O)Nc3ccc(C(N)=O)cn3)cc3c2CC(C)(C)O3)cc1F` [Example 146, 6-{[4-(4-Dimethylcarbamoyl-3-fluoro-phenoxy)-2,2-dimethyl-2,3-dihydro-benzofuran-6-carbonyl]-amino}-nicotinamide], the activation at 10 µM is 25.1%.
As to `CN(C)C(=O)c1ccc(Oc2cc(C(=O)Nc3ccc(CNC4CC4)cn3)cc3c2CC(C)(C)O3)cc1F` [Example 147, 4-(4-Dimethylcarbamoyl-3-fluoro-phenoxy)-2,2-dimethyl-2,3-dihydro-benzofuran-6-carboxylic acid (5-cyclopropylaminomethyl-pyridin-2-yl)-amide], the activation at 10 µM worked out at 35%.
`Cc1ccc(NC(=O)c2cc(Oc3ccc(C(=O)N(C)C)c(F)c3)c3c(c2)OC(C)(C)C3)nc1` [Example 148, 4-(4-Dimethylcarbamoyl-3-fluoro-phenoxy)-2,2-dimethyl-2,3-dihydro-benzofuran-6-carboxylic acid (5-methyl-pyridin-2-yl)-amide]: the activation at 10 µM was 49.5%, the EC50 was determined as 0.0428 µM and the Emax was 53%.
